Experimental data taken from patent publication US8609100B2, “Method for inhibiting dendritic cell immunoreceptor (DCIR)-mediated human immunodeficiency virus infection comprising administering anti-DCIR antibodies” (Universite Laval, priority 2008, dated 2013).

Columns and labels:
[1] = test system: HIV-1 (NL4-3balenv); assay: HIV-1 transfer assay: virus-pulsed IM-MDDC co-cultured with autologous CD4+ T cells, p24 ELISA; type: cell-based, human immunodeficiency virus type 1
Protocol: HIV-1 transfer assay: IM-MDDC (10^5 cells in 100 μl) transfected either with the above listed siRNAs or pre-incubated with polyclonal anti-DCIR (10 μg/1.5×10^5 cells) were exposed to HIV-1 (10 ng of p24) for 60 min at 37° C. Next, the virus-cell mixture was washed three times with PBS to remove unadsorbed virions. In some experiments, cells were also treated with the anti-HIV-1 drug EFV (efavirenz) (50 μM). Finally, IM-MDDC were co-cultured with autologous activated CD4^+ T lymphocytes at a 1:3 ratio in complete RPMI-1640 medium supplemented with IL-2 (30 U/ml) in 96-well plates in a final volume of 200 μl. At day 2, virus production was estimated by measuring p24 levels in cell-free culture supernatants by ELISA.
(§1) We next evaluated the transfer of HIV to autologous CD4^+ T cells. To that effect, IM-MDDC (1×10^6 cells) were treated with Oligofectamine and then either left untreated (control) or exposed to a non-specific siRNA and a DCIR-specific siRNA. Next, cells (1×10^5) were pulsed with NL4-3balenv (10 ng of p24) for 60 min at 37° C. After three washes with PBS to eliminate unbound virus, IM-MDDC were co-cultured with autologous CD4^+ T cells at a 1:3 ratio. Cell-free culture supernatants were collected at day 2 following initiation of the co-culture and analyzed for the p24 content. Data shown in FIG. 3 represent the means±SD of triplicate samples from three combined independent experiments. Asterisks denote statistically significant data (***, P<0.001).
as §1, with “In FIG. 4A,” for “We next evaluated the transfer of HIV to autologous CD4^+ T cells. To that effect,”, “were either left untreated or treated with EFV. IM-MDDC (2×10^5 cells)” for “(1×10^5)”, “(20” for “(10”, “shown” for “shown in FIG. 3”, “two different donors and are representative of four separate donors.” for “three combined independent experiments.”, “(*, P<0.05, **, P<0.01).” for “(***, P<0.001).”
(§2) In FIG. 5 left panels, IM-MDDC (2×10^5 cells) were initially treated with either a control Ab or a polyclonal anti-DCIR (10 μg per 1.5×10^5 cells). Next, cells were extensively washed to eliminate excess Ab and pulsed with NL4-3balenv (20 ng of p24) for 2 hrs at 37° C. […] Cell-free culture supernatants were collected at the indicated time points and analyzed for the p24 content. […] Cell-free culture supernatants were collected at day 2 following initiation of the co-culture and analyzed for the p24 content. […]

[2] = test system: DCIR; assay: DCIR surface expression in siRNA-transfected IM-MDDC by flow cytometry; type: cell-based, human; conditions: 40 hrs after siRNA transfection, FIG. 2
Protocol: Flow cytometric analysis: Cell surface expression of DCIR was monitored by flow cytometric analysis with a flow cytometry apparatus (Epics ELITE ESP, Coulter Electronics, Burlington, ON). Before staining, cells were incubated for 15 min at 4° C. with 10% pooled human sera to block non-specific binding sites and washed once with phosphate buffered saline (PBS) supplemented with 0.5% bovine serum albumin (BSA). Next, cells were incubated for 45 min at 4° C. with anti-DCIR (0.25 μg) monoclonal Ab and then washed twice with PBS and 0.5% BSA. Non-specific staining was determined by using an isotype-matched irrelevant control Ab. After two final washes with PBS, cells were fixed in 2% paraformaldehyde and analyzed.
Gene silencing of DCIR with siRNAs: Small interfering RNAs (siRNAs) either specific (i.e. 5′-ATTTAGGTGGTCTGTCA-3′; [SEQ ID NO:11]) or non-specific for DCIR (i.e. 5′-[…]-3′; [SEQ ID NO:45]) were obtained from Qiagen and dissolved in an appropriate buffer. The studied siRNAs were subsequently tested in IM-MDDC as previously described 2. Control cells were treated with either Oligofectamine alone or Oligofectamine and non-specific siRNAs. […] The efficiency of DCIR silencing with the tested siRNA was monitored by flow cytometry.
We thus employed RNA interference to reduce DCIR expression in IM-MDDC and analyzed the possible effect on HIV-1 transfer. […]

[3] = test system: HIV-1 (NL4-3balenv); assay: HIV-1 infection of IM-MDDC: virus production by p24 ELISA; type: cell-based, human immunodeficiency virus type 1; conditions: siRNA-transfected IM-MDDC pulsed with NL4-3balenv 20 ng p24 for 2 hrs; FIG. 4C
Protocol: HIV-1 infection of IM-MDDC: IM-MDDC (2×10^5 cells in a final volume of 100 μl) either transfected with the studied siRNAs or pre-incubated with the above mentioned polyclonal anti-DCIR were exposed to HIV-1 (20 ng of p24) for 2 hr at 37° C. After three washes with PBS, cells were maintained in complete RPMI-1640 culture medium supplemented with GM-CSF (1,000 U/ml) and IL-4 (200 U/ml) in 96-well plates in a final volume of 200 μl. Every 3 days and for a period lasting 9 days, half of the medium was removed and kept frozen at −20° C. until assayed. Virus production was estimated by measuring p24 levels in culture supernatants by ELISA. […]
In FIG. 4C, IM-MDDC were treated with Oligofectamine and then either left untreated (control) or exposed to a non-specific siRNA and a DCIR-specific siRNA. […] Cell-free culture supernatants were collected at the indicated time points and analyzed for the p24 content. […]
as §2, with “cells).” for “cells). Next, cells were extensively washed to eliminate excess Ab and pulsed with NL4-3balenv (20 ng of p24) for 2 hrs at 37° C.”

[4] = test system: DC-SIGN; assay: DC-SIGN expression in IM-MDDC after DCIR-specific siRNA; type: cell-based, human; conditions: IM-MDDC transfected with siRNA; data not shown
Description: (§3) A ˜30% decrease in surface expression of DCIR in IM-MDDC was observed following the use of DCIR-specific siRNA (FIG. 2).

[5] = test system: IM-MDDC; type: cell-based, human
Description: as §3

Compound	effect on HIV-1 propagation (virus transfer) ([1]; EFV 50 μM added to IM-MDDC, FIG. 4A)	decrease in surface expression of DCIR in IM-MDDC [2] [%]	de novo virus production in IM-MDDC (p24) [3]	DC-SIGN expression [4]	cells viability [5]	reduction in virus transfer (average diminution) ([1]; cells treated with EFV (50 μM), NL4-3balenv 20 ng p24, co-culture day 2, FIG. 4A) [%]	reduction in virus transfer (average decrease) ([1]; in absence of EFV, NL4-3balenv 20 ng p24, co-culture day 2, FIG. 4A) [%]	transfer of HIV-1 from IM-MDDC to autologous CD4+ T cells (p24 content) ([1]; siRNA-transfected IM-MDDC pulsed with NL4-3balenv 10 ng p24 for 60 min, co-culture 1:3, day 2, FIG. 3)
O=C1Nc2ccc(Cl)cc2[C@@](C#CC2CC2)(C(F)(F)F)O1 [EFV, efavirenz, reference compound]	limited effect							
DCIR-specific siRNA: siRNA specific for DCIR, 5′-ATTTAGGTGGTCTGTCA-3′ [SEQ ID NO:11], obtained from Qiagen (chemistry not given here)		~30	decrease	not affected	minimally affected	40	30	reduced significantly
